The values below come from US20050129662A1 (priority 2002, published 2005).

Holding throughout (assay type): in vivo
Experiment [1] deals with peronospora (Plasmopara viticola). In words: Open-field fight against peronospora on muscat vine (Examples 2-6). The conditions noted are these: 11 interventions. The text has this: (§1) All tables and related theses reproduced herein result from an experimental activity carried out in the open field following precise protocols and experimental guidelines.
(§2) The aim of this experimental activity was that of verifying the possibility of reducing the amount of the chemical formulation employed, while keeping the activity of same unchanged towards adversities to be fought (peronospora, mildew and Panonychus ulmi), thanks to addition of the adjuvant, preferably soybean oil.
(§3) The methodologies for detection of the efficiency results were selected depending on: the pathology to be fought, infection, % spreading of the disease for peronospora, mildew and acid rot, and depending on the count of the mite number per leaf in the fight tests against Panonychus ulmi.
(§4) Among the great number of statistical tests interpreting the experimental data items, Duncan test in the scientific field is considered as one of the best evaluation instruments for significance of the experimental data items. […] Example: 12.5a 0.9b 0.3b

Another experiment has as its system Lactuga sativa. Briefly: Composite chemical weedkilling, spraying on trays of lettuce plants (Examples 12-15). The conditions noted are these: 1 intervention; for % devitalization T + 14: 14 days from treatment; for % devitalization T + 27: 27 days from treatment. The text has this: • Treatment: 300 l/ha of solution were sprayed • Experimental pattern: spraying on 4 trays, each containing 8 lettuce plants • Flower survey: carried out after 14 days from treatment (T), (T+14), and after 27 days (T+27), stating the devitalization degree in percentage
Test target: Composite chemical weedkilling (Lactuga sativa)
With reference to the active ingredients employed in examples 12-15, it was an aim of this experimental research to verify the influence of the emulsion addition on the herbicide activity towards a target weed belonging to the compositae family. By virtue of the high herbicide activity of weedkillers, when applied in the amounts on the label, and in order to highlight possible efficiency variations of same among the different theses dealt with, all active ingredients were employed alone in amounts reduced by ⅓ and reduced by ⅓ in an extemporaneous mixture with the emulsion being the object of the present invention. Example: should the active ingredients have been employed to the amounts reproduced on the label, it would have been very likely to obtain a 100% devitalization of the weed with the active ingredient alone and in a mixture with the emulsion.
As to the methodologies for efficiency detection, a visual estimation was selected, by allocating a % value to the overall devitalizing activity observed on the target plant.

The next experiment concerns Panonychus ulmi. In words: Open-field fight against Panonychus ulmi on muscat vine (Examples 8-10). The conditions noted are these: 1 intervention.
Text: as §1, §2, §3, §4

The subject of experiment [2] is mildew (Uncinula necator). The following applies: muscat vine; 4795 g or ml/ha; 6 interventions.

`CO/C=C(/C(=O)OC)c1ccccc1Oc1cc(Oc2ccccc2C#N)ncn1` [Azoxystrobin]: in experiment [1] (250 g or ml/ha), the “% infection on bunches” value is recorded as 0.0 b %, the “% spreading on bunches” value came to 0.0 b % and the “Action Degree” value turned out to be 100.

Consider `CCCCCCCC(=O)Oc1c(Br)cc(C#N)cc1Br` [Bromoxynil octanoate], for which, in the experiment with Lactuga sativa (356 g or ml/ha), the “% devitalization T + 14” value is 56.0% and the “% devitalization T + 27” value is 67.5%.

For the molecule `O=C(O)c1nc(Cl)ccc1Cl` [Clopyradil], in the experiment with Lactuga sativa (100 g or ml/ha), the “% devitalization T + 14” value amounted to 85.0% and the “% devitalization T + 27” value was 87.5%.

As to `COc1ccc(C(=CC(=O)N2CCOCC2)c2ccc(Cl)cc2)cc1OC` [Dimethomorph], in experiment [1] (1050 g or ml/ha), the “% infection on bunches” value was 0.0 b %, the “% spreading on bunches” value is on record as 0.0 b % and the “Action Degree” value is listed as 100.

Take `O=C(NC(=O)c1c(F)cccc1F)Nc1ccc(Oc2ccc(C(F)(F)F)cc2Cl)cc1F` [Flufenoxuron]: in the experiment on Panonychus ulmi (50 g or ml/ha), the “Action Degree” value worked out at 68.0, the “Mites per leaf 1” value is 1.1 b and the “Mites per leaf 2” value is 3.0 b.

On to `O=C1c2ccccc2C(=O)N1SC(Cl)(Cl)Cl` [Folpet], for which, in experiment [1] (1200 g or ml/ha), the “% infection on bunches” value amounted to 0.0 b %, the “% spreading on bunches” value is 0.0 b % and the “Action Degree” value was determined as 100.

For `O=C(O)CNCP(=O)(O)O` [Gliphosate], in the experiment with Lactuga sativa (360 g or ml/ha), the “% devitalization T + 14” value was determined as 32.0% and the “% devitalization T + 27” value turned out to be 90.0%.

Take `C[C@@H]1[C@@H](c2ccc(Cl)cc2)SC(=O)N1C(=O)NC1CCCCC1` [Hexythiazox]: in the experiment with Panonychus ulmi (f.c. 30 g or ml/ha), the “Action Degree” value was determined as 91.6, the “Mites per leaf 1” value was determined as 0.0 b and the “Mites per leaf 2” value turned out to be 0.6 b.

In the case of `O=c1[nH]c2c(c(=O)n1C1CCCCC1)CCC2` [Lenacil], in the experiment with Lactuga sativa (150 g or ml/ha), the “% devitalization T + 14” value was determined as 11.0% and the “% devitalization T + 27” value is 30.0%.

In the case of `S1SSSSSSS1` [Sulphur], in experiment [2], the “% infection on bunches” value turned out to be 2.2 b %, the “% spreading on bunches” value is on record as 12.5 bd % and the “Action Degree” value is 85.7.

Consider `CCc1nn(C)c(C(=O)NCc2ccc(C(C)(C)C)cc2)c1Cl` [Tebufenpyrad], for which, in the experiment with Panonychus ulmi (125 g or ml/ha), the “Action Degree” value was found to be 80.8, the “Mites per leaf 1” value is 0.4 b and the “Mites per leaf 2” value turned out to be 1.1 b.

As for Fosetyl-Aluminium, in experiment [1] (960 g or ml/ha), the “% infection on bunches” value is 0.3 b %, the “% spreading on bunches” value amounted to 0.8 b % and the “Action Degree” value was determined as 87.2.

Take Mancozeb: in experiment [1] (1470 g or ml/ha), the “% infection on bunches” value turned out to be 0.2 b %, the “% spreading on bunches” value came to 0.3 b % and the “Action Degree” value is recorded as 97.4.
